Like-named read-outs stand apart in the source and are kept apart here.
What was measured:
5‐AR types 1 and 2 = assay: Effect of dutasteride on in vitro testosterone metabolism in human hepatocytes; format: cell-based; settings: 200 nM dutasteride with 50 μM testosterone, 60 minutes; for change in metabolite formation/levels with dutasteride co‐treatment: human hepatocytes
[1] = for AUC0‐24h at T800, fold higher than with T200: 800 mg vs 200 mg oral testosterone
UGT2B7 = UGT2B7 (Homo sapiens, UniProt P16662); settings: scaled by absolute UGT2B abundance in the liver
UGT2B17 = biological target: T1, UGT2B17 (Homo sapiens, UniProt O75795); format: in vitro ADME; settings: scaled by absolute UGT2B abundance in the intestine
T1 sequence (O75795 24-530): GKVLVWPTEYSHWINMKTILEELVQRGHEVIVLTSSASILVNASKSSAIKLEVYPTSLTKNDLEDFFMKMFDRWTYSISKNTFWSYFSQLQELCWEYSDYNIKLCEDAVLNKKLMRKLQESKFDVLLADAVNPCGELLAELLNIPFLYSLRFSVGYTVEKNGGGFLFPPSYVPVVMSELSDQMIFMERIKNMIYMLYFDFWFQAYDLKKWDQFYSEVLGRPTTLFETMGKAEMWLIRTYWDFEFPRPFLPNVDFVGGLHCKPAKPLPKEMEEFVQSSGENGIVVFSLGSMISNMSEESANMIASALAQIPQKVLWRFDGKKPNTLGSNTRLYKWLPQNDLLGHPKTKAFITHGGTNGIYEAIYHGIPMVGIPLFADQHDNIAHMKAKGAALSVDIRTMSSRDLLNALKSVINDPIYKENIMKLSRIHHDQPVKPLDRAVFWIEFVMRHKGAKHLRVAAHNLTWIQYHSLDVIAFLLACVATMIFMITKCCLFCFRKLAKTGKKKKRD

human hepatocytes = assay: In vitro metabolite formation from testosterone in primary human hepatocyte; format: in vitro ADME
[2] = oral; cited from earlier work
testosterone production = settings: normal men, single injection 300 μg/kg subcutaneous; cited from earlier work

UGT2B7, sequence (P16662 24-529): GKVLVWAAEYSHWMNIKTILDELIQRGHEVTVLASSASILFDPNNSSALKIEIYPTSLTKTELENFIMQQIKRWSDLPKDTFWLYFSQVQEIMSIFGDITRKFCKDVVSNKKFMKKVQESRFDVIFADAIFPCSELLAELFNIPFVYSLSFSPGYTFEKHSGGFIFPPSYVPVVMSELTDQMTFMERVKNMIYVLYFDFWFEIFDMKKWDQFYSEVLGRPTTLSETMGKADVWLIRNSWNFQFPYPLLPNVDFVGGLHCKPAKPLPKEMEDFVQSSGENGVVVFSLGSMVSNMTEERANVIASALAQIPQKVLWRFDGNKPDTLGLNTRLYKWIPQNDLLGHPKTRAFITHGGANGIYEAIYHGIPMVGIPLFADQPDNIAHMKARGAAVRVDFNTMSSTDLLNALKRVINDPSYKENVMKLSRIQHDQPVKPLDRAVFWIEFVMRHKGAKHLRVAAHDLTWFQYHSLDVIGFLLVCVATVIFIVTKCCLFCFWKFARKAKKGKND

## C[C@]12CC[C@H]3[C@@H](C[C@@H](O)C4=CC(=O)CC[C@@]43C)[C@@H]1CC[C@@H]2O [6β‐OH‐T, 6β‐hydroxytestosterone]
5‐AR types 1 and 2
  change in metabolite formation/levels with dutasteride co‐treatment: significant decreases
[1]; after oral testosterone
  detection in serum: only detectable in a few samples

## C[C@]12CC[C@@H](O)C[C@@H]1CC[C@@H]1[C@@H]2CC[C@]2(C)C(=O)CC[C@@H]12 [A, androsterone]
UGT2B7
  predicted contribution of UGT2B7 to hepatic glucuronidation: 100%
UGT2B17
  predicted contribution of UGT2B17 to intestinal glucuronidation: 70%
5‐AR types 1 and 2
  change in metabolite formation/levels with dutasteride co‐treatment: significant decreases

## C[C@]12CCC(=O)C=C1CC[C@@H]1[C@@H]2CC[C@]2(C)C(=O)CC[C@@H]12 [AED, androstenedione]
Human hepatocytes
  in vitro formation from testosterone: 46%
5‐AR types 1 and 2
  change in metabolite formation/levels with dutasteride co‐treatment: No significant changes
[1]
  AUC0‐24h at T800, fold higher than with T200: 4.2 fold
  circulating levels higher in T200+D and T800+D as compared with testosterone alone: 5.7 fold
[1]; male, human, in vivo, 200 mg, T200
  Tmax: 2 h
[1]; male, human, in vivo, T200+D
  Tmax: 2 h

## C[C@]12CCC(=O)C[C@@H]1CC[C@@H]1[C@@H]2CC[C@]2(C)[C@@H](O)CC[C@@H]12 [DHT, dihydrotestosterone]
5‐AR types 1 and 2
  change in metabolite formation/levels with dutasteride co‐treatment: significant decreases
[1]
  AUC0‐24h at T800, fold higher than with T200: 3.3 fold
[1]; male, human, in vivo, 800 mg, T800
  Tmax: 2 h
[1]; male, human, in vivo, AUC0–24h, T800+D, average, n = 7
  AUC(0-t): 0.0266 µM·h
[1]; male, human, in vivo, T200+D
  Tmax: 4 h

## C[C@]12CC[C@@H](O)C[C@H]1CC[C@@H]1[C@@H]2CC[C@]2(C)C(=O)CC[C@@H]12 [Etio, etiocholanolone]
UGT2B17
  predicted contribution of UGT2B17 to intestinal glucuronidation: 90%
[1]
  circulating levels higher in T200+D and T800+D as compared with testosterone alone: 2.3 fold

## C[C@]12CC[C@H]3[C@@H](CCC4=CC(=O)CC[C@@]43C)[C@@H]1CC[C@@H]2O [Testosterone, reference compound]
UGT2B17
  predicted contribution of UGT2B17 to intestinal glucuronidation: 100%
[2]
  bioavailability: 2–8%

## C[C@]12C=CC(=O)N[C@@H]1CC[C@@H]1[C@@H]2CC[C@]2(C)[C@@H](C(=O)Nc3cc(C(F)(F)F)ccc3C(F)(F)F)CC[C@@H]12 [dutasteride, reference compound]
5‐AR types 1 and 2
  inhibition of 5‐AR types 1 and 2 mediated metabolism of testosterone: complete inhibition

## acyline
Testosterone production
  duration of suppression of testosterone production: ≥ 15 days
